Each block holds one molecule with its values, some of them ahead of it.
Key:
[1] = test system: pyramidal neurons in the CA1 region of rat hippocampal slices; experiment: Long term potentiation (LTP) induced by theta burst stimulation in hippocampal slices; format: cell-based; details: perfusion of 10 μM
Protocol: Transverse hippocampal slices (400 μm) from halothane-anaesthetized male Wistar rats (180-220 g) were prepared using standard techniques. Slices were maintained in an interface chamber and initially allowed to recover for 45 min. in a hyperosmolar (320 mOsm/kg) artificial cerebrospinal fluid (ACSF) at room temperature. The bath temperature was then raised to 30° C. and the medium was changed to a normotonic ACSF (307 mOsm/kg) containing (in mM): NaCl, 124.0; KCl, 2.5; MgSO24, 2.0: CaCl2, 2.5; KH2PO4, 1.25; NaHCO3, 26.0; glucose, 10; sucrose, 4; bubbled with 95% O2/5% CO2 (pH 7.4); perfusion rate: 0.75 ml/min. The Schaffer collateral/commissural fibers were stimulated by twisted platinum-iridium wires (50 μm diameter) placed in the stratum radiatum of the CA1 region. Test stimuli consisted in monophasic impulses of 100 μs duration every 30 seconds and the stimulus strength was adjusted to obtain 30% of the maximal EPSP amplitude (maximal EPSP without superimposed population spike). EPSP's were recorded from the CA1 stratum radiatum by means of 2 glass micropipettes (2 M NaCl, 1-5 MΩ) positioned about […] apart from the stimulation electrode on each side. […]

NMDA receptor = experiment: NMDA receptor-mediated EPSPs in hippocampal slices; format: cell-based, rat; details: 30 μM, in the presence of CNQX
Protocol: NMDA receptor-mediated EPSP's were isolated by applying 30 μM of the non-NMDA blocker 6-cyano-7-nitroquinoxaline-2,3-dione (CNQX; Tocris) starting 20 minutes prior to the application of antibodies or glycopeptides.

[2] = test system: mouse mesencephalon cells; experiment: Mesencephalon cells cultured on L1-coated plates, stained for dopamine; format: cell-based; details: plates coated with laminin, 7 days
Protocol: An experiment was performed to further elucidate the activity of L1 with CNS nerve tissue. Specifically, aliquot samples of mouse mesencephalon cells were plated and cultured on four separate plates having media prepared as follows: the first control plate was coated with poly-L-lysine alone; a second plate was coated with poly-L-lysine and L1; a third control plate was coated with poly-L-lysine and laminin; and a fourth plate was coated with poly-L-lysine, laminin and L1. All plates received aliquot amounts of cells and were incubated under identical conditions. After 7 days, the plates were all stained for the presence of dopamine and thereafter observed.

small cerebellar neurons = experiment: Neurite outgrowth of small cerebellar neurons on substrate-coated L1 monoclonal antibodies; format: cell-based; details: neurons on L1 and antibody 557.B6
Excerpt: To determine the domains of neural cell adhesion molecule L1 involved in neurite outgrowth, monoclonal antibodies against L1 were generated and their effects on neurite outgrowth of small cerebellar neurons in culture investigated. […] These observations indicate for the first time a distinct site on cell surface-bound L1 as a prominent signal transducing domain through which the recognition events appear to be funnelled to trigger neurite outgrowth, increase turnover of inositol phosphates and elevate intracellular levels of Ca^2+.

[3] = test system: mesencephalic neurons (DBH+); experiment: Survival and neurite outgrowth of DBH+ mesencephalic neurons; format: cell-based, rat; details: DBH+ neurons after 7 days in vitro, mean ± SEM
Protocol: Soluble L1 was made in COS cells as a recombinant L1-Fc fusion protein by the procedure described in Neuron 14:57-66, 1995. The recombinant protein was purified by Protein A affinity chromatography, and was used either as a substrate coated onto plastic or as a soluble molecule added to the culture medium at approximately 1-10 μg/ml. Neurite outgrowth and survival of mesencephalic neurons from day 17 rat embryos were examined in culture after 7 days in vitro maintenance. Dopaminergic neurons were recognized by immunostaining for dopamine-β-hydroxylase (DBH) and quantified using IBAS morphometric equipment. Cultures with added soluble L1-Fc were maintained on poly-DL-ornithine (PORN) and substrate-coated L1-Fc was added on top of previously coated PORN (under conditions described in Appel et al, J. Neuroscience 13:4764-4775, 1993). NCAM-Fc was used as a control.

hippocampal neurons = experiment: Neurite outgrowth of hippocampal neurons in coculture with L929 transfectants; format: cell-based, rat; details: CHL1-transfected L929 cells, 11-12 h coculture
Protocol: In addition to the studies conducted and reviewed above, further experiments were conducted withy CHL1 to define its role in neurite outgrowth and the parameters of its action. Thus and as depicted and described earlier with reference to FIGS. 28A-C, hippocampal neurons were co-cultured with L929 transfectants and L929 parental cells. Particularly, hippocampal neurons derived from rats of embryonal day 18 were cultured in subconfluent monolayers of L929-transfectants or parental L929 cells. After 11-12 h of coculture the cells were fixed and labeled with monoclonal antibody 412 (recognizing the HNK-1 carbohydrate epitope) or a polyclonal antibody against NCAM. For measurement of the total neurite length only the longest neurite per each branch was determined due to the highly branched character of the neurons in these cultures. The results of the experiments are given below with letter reference to the respective figures within FIG. 28. […] Neurons were cocultured with CHL1-transfectants (CHL1) or parental L929 cells (L929) with (+AB) or without polyclonal antibodies against recombinant CHL1 (500 μg/ml of purified IgG, added 45 min after plating) and on L1-transfectants. The mean total neurite length of 4-5 independent experiments is shown. Error bars are standard error of the mean. (B) Different CHL1 lines promote neurite outgrowth better than L1. […]

cerebellar neurons = experiment: Neurite outgrowth of small cerebellar neurons in coculture with L929 transfectants; format: cell-based, mouse; details: CHL1-transfected L929 cells, 20 h
Protocol: CHL1 activity was also tested with cerebellar neurons as set forth with reference to FIG. 29. Thus, cerebellar neurons derived from 6-7 day old mice were cultured for 20 h on CHL1-transfectants (CHL1), CHL1-transfected non-expressing L929 cells (Mock), parental L929, or L1-transfectants (L1). The results are likewise set forth in paragraphs that correspond in designation to the sub-figures within FIG. 29. […] The mean of total neurite length of three experiments is shown. Error bars are standard error of the mean. (B) CHL1 promotes neurite outgrowth also of small cerebellar neurons better than L1. The total neurite length is given as percent of L929 cells as a control (ctr). Error bars are standard error of the mean. (C) Increase of neurite outgrowth of cerebellar neurons by CHL1 affects all size classes of neurites. Cumulative frequency of distribution plot of the total neurite length of the percentage of neurons with neurites longer than or equal to a certain length x (vertical axis) was plotted as a function of neurite length x (horizontal axis).

NMDA receptor-mediated EPSPs (NMDA receptor): completely suppressed
Molecule: N[C@H](CCCP(=O)(O)O)C(=O)O [D-AP5, D(−)-2-amino-5-phosphonopentanoic acid]
induction of LTP [1]: totally prevented

Molecule: laminin
neurite outgrowth and cell number [2]: greater neurite outgrowth, but not more cells than those coated with L1

Molecule: pertussis toxin
inhibition of neurite outgrowth (small cerebellar neurons): inhibit neurite outgrowth on L1 and antibody 557.B6

Molecule: soluble L1: recombinant L1-Fc fusion protein made in COS cells, added to the culture medium at 1-10 μg/ml
number of neurons ([3]; per unit field): 98 ± 7 | length of neurites (total neurite length per neuron) [3]: 135 ± 27 μm

B1: CHL1: close homolog of L1, presented by CHL1-transfected L929 cells (protein)
chain: MMELPLCGRGLILSLIFLLLKLSAAEIPLSVQQVPTIVKQSYVQVAFPFDEYFQIECEAKGNPEPIFSWTKDDKPFDLSDPRIIAANNSGTFKIPNEGHISHFQGKYRCFASNRLGTAVSEEIEFIVPGVPKFPKEKIEPIDVEEGDSIVLPCNPPKGLPPLHIYWMNIELEHIEQDERVYMSQRGDLYFANVEENDSRNDYCCFAAFPKLRTIVQKMPMKLTVNSSNSIKQRKPKLLLPPAQMGSLSAKTVLKGDTLLLECFAEGLPTPHIQWSKPGSELPEGRATIEVHEKTLKIENISYQDRGNYRCTANNLLGKASHDFHVTVEEPPRWKKKPQSAVYSTGSSGILLCEAEGEPQPTIKWRLNGLPIEKHPFPGDFMFPREISFTNLLFNHTGVYQCEASNIHGTILANANIDVIDVIPLIKTKNEENYATVVGYSAFLHCEYFASPKATVVWEVADETHPLEGDRYHTHENGTLEIYRTTEEDAGSYSCWVDNAMGKAVITANLDIRNATKLRVSPKNPRIPKSHVLELYCESQCDSHLKHSLKLSWSKDGEAFEMNGTEDGRIVIDGAYLTISNITAEDQGVYSCSAQTSLDSTSEKTQVTVLGVPDPPETFTCQKDKNRSVRLLREAGDDHNSKSASTIVEFEGNREEPGKWEELTRVQGEETDVVLSLAPYVRYQFRVTAVNEVGRSHASLPSDHHETPPAAPDKNPQNIRVQASQPKEMIIKWEPLKSMEQNGPGLEYKVSWKPQGAPEEWEEEIVTNHTLRVMTPTVYAPYDVKVQAINQLGSSPDPQPVTLYSGEDYPSTAPVIQRVDVMNSTLVKVTWSSIPKETVHGLLRGYQINWWKTKSLLDGRTHPKEVNILRFSGQRNSGMVPSLDPFSEFHLTVLAYNSKGAGPESEPYIFQTPEGVPEQPSFLKVIKVDKDTATLSWGLPKKLNGNLTGYLLQYQIINDTYELGELNEINVTTPSKSSWHLSNLNSTTKYKFYLRACTSRGCGKPISEEGATLGEGSKGIRKITEGVNVTQKIHPVEVLVPGAEHIVHLMTKNWGDNDSIFQDVIETRGREYAGLYDDISTQGWFIGLMCAIALLTLILLTICFVKRNRGGKYSVKEKEDLHPDPEVQSAKDETFGEYSDSDEKPLKGSLRSLNRNMQPTESADSLVEYGEGDQSIFNEDGSFIGAYTGAKEKGSVESNGSSTATFPLRA
modifications: murine
notes: close homolog of L1, presented by CHL1-transfected L929 cells
neurite outgrowth (hippocampal neurons): Neurite outgrowth is promoted by CHL1 and inhibitable by antibodies | neurite outgrowth (cerebellar neurons): promotes neurite outgrowth of small cerebellar neurons

Reference: patent US6576607B1, “Methods using CNS neurite outgrowth modulators” (Acorda Therapeutics, priority 1995, dated 2003)
